Test results: ChEMBL document CHEMBL3991601, “The target landscape of clinical kinase drugs” (Science, 2017)
Active and inactive are the calls of the source. Cut-off read from the data, not from the text of the source, for most assays here: actives have a measured Kd and inactives only a lower limit.

Key:
[1] = biological target: Protein-tyrosine kinase 2-beta (Homo sapiens, UniProt Q14289)
[2] = biological target: Serine/threonine-protein kinase MRCK beta (Homo sapiens, UniProt Q9Y5S2)
[3] = biological target: T1, Dual specificity mitogen-activated protein kinase kinase 3 (Homo sapiens, UniProt P46734)
T1 sequence (P46734 whole entry): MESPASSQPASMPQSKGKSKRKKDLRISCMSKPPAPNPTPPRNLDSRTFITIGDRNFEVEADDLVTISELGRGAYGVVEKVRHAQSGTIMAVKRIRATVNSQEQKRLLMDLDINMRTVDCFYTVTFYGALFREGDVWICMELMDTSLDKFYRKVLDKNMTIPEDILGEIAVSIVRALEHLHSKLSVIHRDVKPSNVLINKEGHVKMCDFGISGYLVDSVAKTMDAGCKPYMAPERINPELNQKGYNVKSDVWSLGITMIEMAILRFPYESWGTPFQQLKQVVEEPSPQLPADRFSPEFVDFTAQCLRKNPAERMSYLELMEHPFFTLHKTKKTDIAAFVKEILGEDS

[4] = biological target: T2, Serine/threonine-protein kinase Nek3 (Homo sapiens, UniProt P51956)
T2 sequence (P51956 whole entry): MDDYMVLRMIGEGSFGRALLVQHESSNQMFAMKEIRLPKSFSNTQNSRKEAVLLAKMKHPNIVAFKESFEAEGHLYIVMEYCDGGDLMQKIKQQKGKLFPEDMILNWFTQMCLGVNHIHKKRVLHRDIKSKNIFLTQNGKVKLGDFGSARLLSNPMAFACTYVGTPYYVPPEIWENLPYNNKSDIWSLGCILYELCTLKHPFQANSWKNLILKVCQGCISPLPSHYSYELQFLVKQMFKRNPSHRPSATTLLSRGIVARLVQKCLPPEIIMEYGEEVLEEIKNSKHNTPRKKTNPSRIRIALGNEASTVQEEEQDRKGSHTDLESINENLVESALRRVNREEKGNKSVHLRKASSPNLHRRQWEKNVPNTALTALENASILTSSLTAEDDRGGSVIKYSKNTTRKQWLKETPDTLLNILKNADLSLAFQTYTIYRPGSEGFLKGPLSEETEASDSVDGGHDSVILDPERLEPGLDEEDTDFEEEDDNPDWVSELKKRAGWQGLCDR

DNA topoisomerase 2-beta = DNA topoisomerase 2-beta (Homo sapiens, UniProt Q02880)
Chain of DNA topoisomerase 2-beta (Q02880 whole entry): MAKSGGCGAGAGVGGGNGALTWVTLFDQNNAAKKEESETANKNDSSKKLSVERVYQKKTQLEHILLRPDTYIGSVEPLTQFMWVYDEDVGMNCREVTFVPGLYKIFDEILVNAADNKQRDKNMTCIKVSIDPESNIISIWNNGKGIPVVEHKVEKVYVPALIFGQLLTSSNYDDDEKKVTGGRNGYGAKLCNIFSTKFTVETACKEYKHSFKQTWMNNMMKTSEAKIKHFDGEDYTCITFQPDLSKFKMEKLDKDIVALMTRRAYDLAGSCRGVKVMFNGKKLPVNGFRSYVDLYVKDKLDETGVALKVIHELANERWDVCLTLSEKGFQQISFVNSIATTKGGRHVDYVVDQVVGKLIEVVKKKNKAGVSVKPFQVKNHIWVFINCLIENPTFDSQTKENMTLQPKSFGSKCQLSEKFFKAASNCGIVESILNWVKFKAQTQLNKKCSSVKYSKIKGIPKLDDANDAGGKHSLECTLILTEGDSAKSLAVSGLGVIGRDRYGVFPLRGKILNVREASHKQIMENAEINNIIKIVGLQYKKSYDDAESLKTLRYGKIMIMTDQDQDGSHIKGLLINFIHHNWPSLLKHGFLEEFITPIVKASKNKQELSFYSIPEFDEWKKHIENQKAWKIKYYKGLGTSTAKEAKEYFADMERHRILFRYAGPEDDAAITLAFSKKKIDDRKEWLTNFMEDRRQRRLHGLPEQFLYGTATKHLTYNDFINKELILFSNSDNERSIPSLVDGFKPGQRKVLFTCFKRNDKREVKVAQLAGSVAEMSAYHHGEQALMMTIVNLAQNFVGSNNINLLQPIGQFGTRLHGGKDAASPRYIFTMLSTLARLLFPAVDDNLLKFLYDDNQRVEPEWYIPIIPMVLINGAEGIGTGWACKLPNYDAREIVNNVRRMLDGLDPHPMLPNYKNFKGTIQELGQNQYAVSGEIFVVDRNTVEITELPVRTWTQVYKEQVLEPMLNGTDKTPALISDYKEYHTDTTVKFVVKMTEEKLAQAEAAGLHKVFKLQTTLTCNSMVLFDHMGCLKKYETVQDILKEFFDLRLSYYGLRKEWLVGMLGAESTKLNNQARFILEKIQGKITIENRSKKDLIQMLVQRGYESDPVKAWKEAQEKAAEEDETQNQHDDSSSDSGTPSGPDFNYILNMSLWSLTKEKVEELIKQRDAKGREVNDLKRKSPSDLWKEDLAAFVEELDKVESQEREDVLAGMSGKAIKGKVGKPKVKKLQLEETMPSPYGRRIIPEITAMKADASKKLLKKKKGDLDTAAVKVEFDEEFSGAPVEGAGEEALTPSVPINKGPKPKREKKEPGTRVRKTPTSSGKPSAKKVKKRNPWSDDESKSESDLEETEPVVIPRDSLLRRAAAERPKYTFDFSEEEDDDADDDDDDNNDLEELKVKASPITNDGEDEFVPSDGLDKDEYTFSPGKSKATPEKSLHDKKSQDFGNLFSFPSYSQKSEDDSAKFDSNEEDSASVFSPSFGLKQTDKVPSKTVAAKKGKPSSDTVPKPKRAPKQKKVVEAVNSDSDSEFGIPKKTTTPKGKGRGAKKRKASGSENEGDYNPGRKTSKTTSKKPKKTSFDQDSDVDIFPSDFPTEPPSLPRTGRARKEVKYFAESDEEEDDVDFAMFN

[5] = biological target: T3, Cytochrome c1, heme protein, mitochondrial (Homo sapiens, UniProt P08574)
T3 sequence (P08574 whole entry): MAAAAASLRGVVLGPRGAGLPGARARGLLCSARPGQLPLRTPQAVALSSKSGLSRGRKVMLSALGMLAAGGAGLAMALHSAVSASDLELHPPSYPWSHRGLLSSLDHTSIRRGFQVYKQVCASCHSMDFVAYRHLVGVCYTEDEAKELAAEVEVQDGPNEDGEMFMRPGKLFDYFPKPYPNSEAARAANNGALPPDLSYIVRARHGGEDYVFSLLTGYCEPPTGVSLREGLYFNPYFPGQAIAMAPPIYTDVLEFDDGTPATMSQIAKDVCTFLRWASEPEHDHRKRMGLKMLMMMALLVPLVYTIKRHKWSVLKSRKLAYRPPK

[6] = biological target: Serine/threonine-protein kinase SIK3 (Homo sapiens, UniProt Q9Y2K2)
[7] = biological target: Tyrosine-protein kinase HCK (Homo sapiens, UniProt P08631)
Chain of Tyrosine-protein kinase HCK (P08631 whole entry): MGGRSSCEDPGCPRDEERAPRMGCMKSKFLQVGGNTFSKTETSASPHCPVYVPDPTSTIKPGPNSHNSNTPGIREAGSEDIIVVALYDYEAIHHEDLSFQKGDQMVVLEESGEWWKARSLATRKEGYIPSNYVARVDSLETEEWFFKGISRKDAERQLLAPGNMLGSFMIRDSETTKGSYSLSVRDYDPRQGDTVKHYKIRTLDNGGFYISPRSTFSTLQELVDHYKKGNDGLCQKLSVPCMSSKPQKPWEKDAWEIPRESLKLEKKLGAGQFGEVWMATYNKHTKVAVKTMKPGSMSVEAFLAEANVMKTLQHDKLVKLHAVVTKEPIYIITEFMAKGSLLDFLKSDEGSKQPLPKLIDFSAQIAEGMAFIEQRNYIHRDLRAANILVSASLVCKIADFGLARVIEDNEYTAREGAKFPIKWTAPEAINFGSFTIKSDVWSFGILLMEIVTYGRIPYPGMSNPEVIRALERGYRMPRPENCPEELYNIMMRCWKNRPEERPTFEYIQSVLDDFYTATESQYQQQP

[8] = biological target: Ribosomal protein S6 kinase alpha-4 (Homo sapiens, UniProt O75676)
Chain of Ribosomal protein S6 kinase alpha-4 (O75676 whole entry): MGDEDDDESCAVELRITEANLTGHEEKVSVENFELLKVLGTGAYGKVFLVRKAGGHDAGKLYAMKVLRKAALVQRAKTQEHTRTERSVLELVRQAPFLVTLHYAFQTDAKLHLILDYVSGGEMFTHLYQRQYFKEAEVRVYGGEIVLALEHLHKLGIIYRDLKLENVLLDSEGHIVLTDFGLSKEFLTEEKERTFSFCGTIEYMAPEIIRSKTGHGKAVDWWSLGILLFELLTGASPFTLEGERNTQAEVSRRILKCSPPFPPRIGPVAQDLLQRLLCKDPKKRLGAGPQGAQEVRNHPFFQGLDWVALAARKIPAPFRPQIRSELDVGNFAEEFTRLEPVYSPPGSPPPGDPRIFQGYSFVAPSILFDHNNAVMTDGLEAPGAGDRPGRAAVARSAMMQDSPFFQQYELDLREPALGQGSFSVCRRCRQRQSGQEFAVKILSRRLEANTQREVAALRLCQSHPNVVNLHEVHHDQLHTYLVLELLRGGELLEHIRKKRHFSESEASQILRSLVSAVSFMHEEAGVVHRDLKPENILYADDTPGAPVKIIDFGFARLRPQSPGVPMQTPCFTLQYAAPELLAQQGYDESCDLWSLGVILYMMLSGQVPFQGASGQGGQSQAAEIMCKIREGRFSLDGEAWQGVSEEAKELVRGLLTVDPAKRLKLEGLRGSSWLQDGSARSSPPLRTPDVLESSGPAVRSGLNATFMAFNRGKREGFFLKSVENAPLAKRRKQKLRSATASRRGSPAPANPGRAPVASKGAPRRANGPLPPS

[9] = biological target: Cyclin-dependent kinase 3 (Homo sapiens, UniProt Q00526)
Chain of Cyclin-dependent kinase 3 (Q00526 whole entry): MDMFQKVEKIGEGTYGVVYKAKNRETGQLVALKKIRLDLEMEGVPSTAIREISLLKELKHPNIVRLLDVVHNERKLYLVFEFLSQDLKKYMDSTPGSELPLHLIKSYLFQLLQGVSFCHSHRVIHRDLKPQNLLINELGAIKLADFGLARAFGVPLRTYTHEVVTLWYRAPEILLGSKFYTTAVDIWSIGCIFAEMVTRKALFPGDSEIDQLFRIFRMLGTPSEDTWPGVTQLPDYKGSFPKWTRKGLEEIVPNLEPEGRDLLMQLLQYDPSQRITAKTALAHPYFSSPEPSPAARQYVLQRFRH

[10] = biological target: Receptor-interacting serine/threonine-protein kinase 3 (Homo sapiens, UniProt Q9Y572)
Chain of Receptor-interacting serine/threonine-protein kinase 3 (Q9Y572 whole entry): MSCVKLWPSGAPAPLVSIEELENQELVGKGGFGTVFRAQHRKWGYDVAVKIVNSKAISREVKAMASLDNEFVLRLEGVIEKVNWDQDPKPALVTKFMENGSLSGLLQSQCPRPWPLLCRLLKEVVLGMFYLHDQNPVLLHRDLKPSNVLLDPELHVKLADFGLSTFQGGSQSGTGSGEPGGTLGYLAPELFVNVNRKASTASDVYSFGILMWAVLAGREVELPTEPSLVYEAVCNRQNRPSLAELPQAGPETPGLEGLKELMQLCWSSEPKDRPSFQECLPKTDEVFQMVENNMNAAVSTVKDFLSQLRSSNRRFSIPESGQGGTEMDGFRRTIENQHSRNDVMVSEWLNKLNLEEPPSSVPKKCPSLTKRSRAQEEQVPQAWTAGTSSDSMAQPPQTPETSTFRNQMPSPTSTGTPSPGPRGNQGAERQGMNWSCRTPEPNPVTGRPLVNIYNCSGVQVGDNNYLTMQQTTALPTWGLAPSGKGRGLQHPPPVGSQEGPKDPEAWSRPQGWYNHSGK

[11] = biological target: T4, Serine/threonine-protein kinase 4 (Homo sapiens, UniProt Q13043)
T4 sequence (Q13043 whole entry): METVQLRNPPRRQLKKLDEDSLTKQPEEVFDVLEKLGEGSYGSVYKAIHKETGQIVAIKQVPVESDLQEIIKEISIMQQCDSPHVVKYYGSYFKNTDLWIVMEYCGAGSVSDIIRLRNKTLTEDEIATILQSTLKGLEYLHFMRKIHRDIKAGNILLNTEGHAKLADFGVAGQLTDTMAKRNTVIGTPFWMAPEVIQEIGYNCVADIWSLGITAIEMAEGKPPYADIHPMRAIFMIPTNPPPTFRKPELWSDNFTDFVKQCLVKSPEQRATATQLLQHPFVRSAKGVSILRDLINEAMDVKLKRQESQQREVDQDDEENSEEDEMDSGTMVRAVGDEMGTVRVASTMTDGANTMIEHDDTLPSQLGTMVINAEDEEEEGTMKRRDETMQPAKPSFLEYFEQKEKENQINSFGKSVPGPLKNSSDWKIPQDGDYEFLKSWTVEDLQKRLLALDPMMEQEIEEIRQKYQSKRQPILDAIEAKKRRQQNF

[12] = biological target: cAMP-dependent protein kinase catalytic subunit alpha (Homo sapiens, UniProt P17612)
Insulin receptor = Insulin receptor (Homo sapiens, UniProt P06213)
[13] = biological target: Cyclin-dependent kinase 1 (Homo sapiens, UniProt P06493)
Chain of Cyclin-dependent kinase 1 (P06493 whole entry): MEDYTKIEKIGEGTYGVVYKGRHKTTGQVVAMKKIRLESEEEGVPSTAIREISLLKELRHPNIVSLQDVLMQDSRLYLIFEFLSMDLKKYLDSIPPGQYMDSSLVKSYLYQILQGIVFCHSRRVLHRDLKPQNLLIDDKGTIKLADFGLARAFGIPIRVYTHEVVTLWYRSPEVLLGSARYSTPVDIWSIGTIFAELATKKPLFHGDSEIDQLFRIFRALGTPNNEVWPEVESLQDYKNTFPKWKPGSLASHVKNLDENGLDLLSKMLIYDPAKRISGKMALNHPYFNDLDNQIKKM

Aurora kinase A = biological target: T5, Aurora kinase A (Homo sapiens, UniProt O14965)
T5 sequence (O14965 whole entry): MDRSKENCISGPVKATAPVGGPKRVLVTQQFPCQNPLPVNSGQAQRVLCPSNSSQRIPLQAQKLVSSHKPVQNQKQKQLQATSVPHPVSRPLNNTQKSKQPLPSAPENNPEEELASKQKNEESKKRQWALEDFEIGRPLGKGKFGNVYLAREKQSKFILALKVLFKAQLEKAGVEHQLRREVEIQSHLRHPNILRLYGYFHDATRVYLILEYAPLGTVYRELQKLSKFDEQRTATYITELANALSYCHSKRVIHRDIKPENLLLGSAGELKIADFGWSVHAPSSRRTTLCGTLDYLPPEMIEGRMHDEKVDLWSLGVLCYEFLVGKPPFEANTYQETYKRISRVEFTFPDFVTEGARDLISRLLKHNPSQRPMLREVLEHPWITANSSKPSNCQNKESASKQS
Note: in the data inactive means no Kd found up to 30 µM.

Chain of Protein-tyrosine kinase 2-beta (Q14289 whole entry): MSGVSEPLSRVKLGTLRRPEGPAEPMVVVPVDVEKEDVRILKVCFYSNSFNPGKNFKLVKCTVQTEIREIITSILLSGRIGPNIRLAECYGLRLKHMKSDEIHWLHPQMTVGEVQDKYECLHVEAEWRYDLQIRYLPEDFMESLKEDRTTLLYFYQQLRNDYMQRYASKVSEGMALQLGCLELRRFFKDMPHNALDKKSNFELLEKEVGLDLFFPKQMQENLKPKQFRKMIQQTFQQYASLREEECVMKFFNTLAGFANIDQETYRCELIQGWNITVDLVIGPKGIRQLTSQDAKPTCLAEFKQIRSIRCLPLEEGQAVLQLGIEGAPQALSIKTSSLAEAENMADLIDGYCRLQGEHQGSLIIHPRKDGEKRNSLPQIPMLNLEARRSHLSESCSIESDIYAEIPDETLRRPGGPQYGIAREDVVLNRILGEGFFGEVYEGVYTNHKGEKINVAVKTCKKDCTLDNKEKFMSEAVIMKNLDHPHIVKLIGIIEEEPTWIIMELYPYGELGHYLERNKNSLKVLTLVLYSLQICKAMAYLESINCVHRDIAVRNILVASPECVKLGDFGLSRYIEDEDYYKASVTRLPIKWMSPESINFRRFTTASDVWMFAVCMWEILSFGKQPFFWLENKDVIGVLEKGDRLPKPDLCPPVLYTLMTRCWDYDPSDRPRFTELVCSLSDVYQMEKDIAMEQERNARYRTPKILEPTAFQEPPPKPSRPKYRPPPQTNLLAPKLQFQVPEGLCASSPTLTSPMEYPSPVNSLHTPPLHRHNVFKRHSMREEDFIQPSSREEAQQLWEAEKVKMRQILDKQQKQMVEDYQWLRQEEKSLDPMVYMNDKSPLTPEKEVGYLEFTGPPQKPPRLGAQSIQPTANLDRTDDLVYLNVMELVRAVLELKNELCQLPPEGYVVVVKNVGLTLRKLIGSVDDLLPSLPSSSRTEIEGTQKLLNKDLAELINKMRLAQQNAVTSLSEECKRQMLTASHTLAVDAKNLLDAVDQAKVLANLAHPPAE

Row | SMILES | Kd [1] | Kd [2] | Kd [3] | Kd [4] | Kd (DNA topoisomerase 2-beta) | Kd [5] | Kd [6] | Kd [7] | Kd [8] | Kd [9] | Kd [10] | Kd [11] | Kd [12] | Kd (Insulin receptor) | Kd [13] | Kd (Aurora kinase A)
1 | Cc1cc(Nc2cc(N3CCN(C)CC3)nc(/C=C/c3ccccc3)n2)n[nH]1 [ENMD-2076] | > 30 µM (inactive) | > 30 µM (inactive) | > 30 µM (inactive) | > 30 µM (inactive) | > 30 µM (inactive) | > 30 µM (inactive) | > 30 µM (inactive) | > 30 µM (inactive) | > 30 µM (inactive) | > 30 µM (inactive) | > 30 µM (inactive) | – | – | – | – | –
2 | COc1cc2nccc(Oc3ccc(NC(=O)NC4CC4)c(Cl)c3)c2cc1C(N)=O [LENVATINIB] | > 30 µM (inactive) | > 30 µM (inactive) | > 30 µM (inactive) | > 30 µM (inactive) | > 30 µM (inactive) | > 30 µM (inactive) | > 30 µM (inactive) | > 30 µM (inactive) | > 30 µM (inactive) | – | 0.316 µM (active) | > 30 µM (inactive) | > 30 µM (inactive) | > 30 µM (inactive) | > 30 µM (inactive) | –
3 | O=C(Nc1cccc(Cl)c1)Nc1ncc(CCNc2ncnc3ccsc23)s1 [SNS-314] | > 30 µM (inactive) | > 30 µM (inactive) | – | > 30 µM (inactive) | > 30 µM (inactive) | > 30 µM (inactive) | > 30 µM (inactive) | > 30 µM (inactive) | > 30 µM (inactive) | > 30 µM (inactive) | > 30 µM (inactive) | > 30 µM (inactive) | – | – | – | –
4 | CCn1c(-c2nonc2N)nc2c(C#CC(C)(C)O)ncc(OC[C@H]3CCCNC3)c21 [GSK-690693] | – | – | – | – | > 30 µM (inactive) | > 30 µM (inactive) | – | – | – | – | > 30 µM (inactive) | – | – | – | > 30 µM (inactive) | –
5 | CN1CCN(c2ccc3nc(-c4c(N)c5c(F)cccc5[nH]c4=O)[nH]c3c2)CC1 [DOVITINIB] | – | – | – | – | > 30 µM (inactive) | > 30 µM (inactive) | – | – | – | – | > 30 µM (inactive) | – | – | – | > 30 µM (inactive) | –
6 | O=C(c1ccc(F)c(F)c1Nc1ccc(I)cc1F)N1CC(O)([C@@H]2CCCCN2)C1 [COBIMETINIB] | > 30 µM (inactive) | > 30 µM (inactive) | > 30 µM (inactive) | > 30 µM (inactive) | > 30 µM (inactive) | > 30 µM (inactive) | > 30 µM (inactive) | > 30 µM (inactive) | > 30 µM (inactive) | – | > 30 µM (inactive) | > 30 µM (inactive) | > 30 µM (inactive) | > 30 µM (inactive) | > 30 µM (inactive) | > 30 µM (inactive)
7 | CCc1cnn2c(NCc3ccc[n+]([O-])c3)cc(N3CCCC[C@H]3CCO)nc12 [DINACICLIB] | > 30 µM (inactive) | > 30 µM (inactive) | > 30 µM (inactive) | > 30 µM (inactive) | > 30 µM (inactive) | > 30 µM (inactive) | > 30 µM (inactive) | > 30 µM (inactive) | > 30 µM (inactive) | – | > 30 µM (inactive) | > 30 µM (inactive) | – | > 30 µM (inactive) | – | –
8 | Cc1cn(-c2cc(NC(=O)c3ccc(C)c(Nc4nccc(-c5cccnc5)n4)c3)cc(C(F)(F)F)c2)cn1 [NILOTINIB] | – | – | – | – | > 30 µM (inactive) | > 30 µM (inactive) | – | – | – | – | 1.27 µM (active) | – | – | – | > 30 µM (inactive) | –
9 | COc1cc(CCc2cc(NC(=O)c3ccc(N4C[C@@H](C)N[C@@H](C)C4)cc3)n[nH]2)cc(OC)c1 [AZD-4547] | > 30 µM (inactive) | > 30 µM (inactive) | > 30 µM (inactive) | > 30 µM (inactive) | > 30 µM (inactive) | > 30 µM (inactive) | > 30 µM (inactive) | > 30 µM (inactive) | > 30 µM (inactive) | > 30 µM (inactive) | > 30 µM (inactive) | > 30 µM (inactive) | > 30 µM (inactive) | > 30 µM (inactive) | > 30 µM (inactive) | –

Further lines, with some results ahead:

Row | Kd [1] | Kd [2] | Kd [3] | Kd [4] | Kd (DNA topoisomerase 2-beta) | Kd [5] | Kd [6] | Kd [7] | Kd [8] | Kd [9] | Kd [10] | Kd [11] | Kd [12] | Kd (Insulin receptor) | Kd [13] | SMILES | Kd (Aurora kinase A)
10 | – | – | – | – | > 30 µM (inactive) | – | – | – | – | – | 3.67 µM | – | – | – | > 30 µM (inactive) | Nc1nc(N)c2nc(-c3cccc(O)c3)c(-c3cccc(O)c3)nc2n1 [TG100-115] | –
11 | – | > 30 µM (inactive) | > 30 µM (inactive) | 0.83 µM (active) | > 30 µM (inactive) | > 30 µM (inactive) | – | – | – | – | 4.82 µM (active) | – | – | – | – | Cc1nc(N)sc1-c1ccnc(Nc2ccc(N3CCOCC3)cc2)n1 [CYC-116] | –
12 | > 30 µM (inactive) | > 30 µM (inactive) | > 30 µM (inactive) | > 30 µM (inactive) | > 30 µM (inactive) | > 30 µM (inactive) | > 30 µM (inactive) | > 30 µM (inactive) | > 30 µM (inactive) | > 30 µM (inactive) | > 30 µM (inactive) | > 30 µM (inactive) | – | > 30 µM (inactive) | > 30 µM (inactive) | OCCn1cc(-c2cnc3nnn(Cc4ccc5ncccc5c4)c3n2)cn1 [PF-04217903] | –
13 | 0.343 µM (active) | > 30 µM (inactive) | > 30 µM (inactive) | > 30 µM (inactive) | > 30 µM (inactive) | > 30 µM (inactive) | > 30 µM (inactive) | > 30 µM (inactive) | > 30 µM (inactive) | > 30 µM (inactive) | > 30 µM (inactive) | 2.37 µM (active) | > 30 µM (inactive) | > 30 µM (inactive) | > 30 µM (inactive) | O=C(O)[C@]1(Cc2cccc(Nc3nccs3)n2)CC[C@@H](Oc2cccc(Cl)c2F)CC1 [MK-5108] | –
14 | > 30 µM (inactive) | > 30 µM (inactive) | > 30 µM (inactive) | > 30 µM (inactive) | > 30 µM (inactive) | > 30 µM (inactive) | > 30 µM (inactive) | > 30 µM (inactive) | > 30 µM (inactive) | – | > 30 µM (inactive) | > 30 µM (inactive) | > 30 µM (inactive) | > 30 µM (inactive) | > 30 µM (inactive) | CNC(=O)c1ccc(-c2cnc3ncc(Cc4ccc5ncccc5c4)n3n2)cc1F [CAPMATINIB] | > 30 µM (inactive)
